Assay results from patent US20050020544A1, “Bicyclic CB2 cannabinoid receptor ligands” (priority 2002, published 2005).

Legend:
male Sprague-Dawley rats = test: Chronic constriction nerve injury, neuropathic pain (Von Frey filaments); format: in vivo, rat
Source text: The aim of this study was to assess the potential analgesic effects of the novel bicyclic CB2 binding compounds in an animal model of neuropathic pain. A peripheral monopathy was induced in the right hind limb of rats following a chronic constriction of the sciatic nerve (Bennet, G. J. & Xie, Y-K., Pain 33: 87-107, 1988). The development of mechanical allodyna was monitored using an established behavioral test (Von Frey filaments).
Pre-surgery baseline values were ascertained as the mean of 2 pre-surgery values. Once the baseline values had been established, the animals were surgically prepared by constricting the right sciatic nerve with 4 chromic cat gut loose ligatures.
The design was randomized, performed in a masked fashion as to whether drug or vehicle is being given. The animals, male Sprague-Dawley rats (average body weight 240-290 g), were allowed to acclimatize to the behavioral testing equipment prior to testing. On the testing day, the animals, at least six per treatment group, were given i.p. a single dose of one of the test compounds in a volume of 2.5 ml/kg. Fifteen minutes later, a series of Von Frey filaments (pre-calibrated prior to testing) were applied to the plantar surface of the hind paw, from below. The filaments were applied in ascending order starting with the weakest force and the withdrawal threshold for both the ipsilateral and contralateral hind paws was evaluated. Each filament was indented on the mid-plantar surface of the foot to the point where it just starts to bend; this is repeated approximately 8-10 times per filament at a frequency of approximately 1 Hz. The withdrawal threshold is defined as being the lowest force of two or more consecutive Von Frey's filaments to elicit a reflex withdrawal response (i.e. a brief paw flick) and is measured in grams.
The results are expressed as % increase in the threshold of response to Von Frey's filaments in the test compound treated group versus the vehicle treated animals and per definition the vehicle treated group yields a null baseline value. The black column represents the morphine treated animals (4 mg/kg), the gray and the dotted column bars represent two doses of compound A (0.5 and 1 mg/kg respectively).

ICR male mice = test: Development of tolerance on repeated administration, tail flick model; settings: 10 mg/kg twice daily i.p.
Description: ICR male mice (20-30 g average body weight, Harlan, Israel) were injected i.p. at the volume dose of 5 ml/kg. Each treatment group contained at least 6 animals. Morphine HCl was used as positive control at the final dose of 5 mg/kg. Its vehicle, saline, was also included as control. The test compounds were dissolved in CREMOPHOR EL®:ethanol and diluted 1:20 in saline prior to injection, this second type of vehicle was also included as negative control. The final dose injected varied from 0.1 to 10 mg/kg. At predetermined time points after treatment injection, the animals were placed in the tail flick system (Socrel, model DS 20). Animals were gently held while their tails were located above the photoelectric cell. The tails were then illuminated (21V) at 2 cm from the distal tip and the latency time, measured in seconds, was recorded in duplicates. At the end of the study, the animals were euthanized by i.p. injection of 100 mg/kg sodium pentobarbitone.
Tolerance was assessed in the tail flick model above described. Briefly, the test compounds were administered twice daily i.p. for up to 10 days to groups of 10 animals each. The noxious pain threshold was measured as previously described in example 13 thirty minutes after the first drug administration on days 1, 4, 8 and 10. Results are expressed as mean latency time till the animal flicked its tail±SE. The differences between the latency times or the % of animals showing analgesia among various treatment groups was analyzed by analysis of variance (ANOVA) followed by post-hoc Tukey's test (for latency) or Fisher's exact test (for % animals). A value of p<0.05 is considered to be statistically significant.

C57/BL male mice = test: MPTP model for Parkinson's disease, TH immunoreactivity in SNpc; format: in vivo, mouse; settings: 20 mg/kg i.p., once before first MPTP, day 7
Description: The mice (C57/BL male mice, average weight 30 g, Harlan, Israel) were administered i.p. with 4 injections of MPTP (Sigma, USA) (20 mg/kg, 5 ml/kg) in saline (Teva Medical Israel) at 2 hours interval on day 1. The treatment groups, including: (a) Saline, untreated, (b) MPTP, untreated, (c) Vehicle (1:20of CREMOPHOR EL®:ethanol), 5 ml/kg i.p., and (d) test compounds, were administered i.p. once just before the first MPTP administration. Seven days following the MPTP treatment the animals were sacrificed (by i.p. administration of pentobarbitone sodium CTS Israel 100 mg/kg) and their brains removed for tyrosine hydroxylase (TH) detection using immunohistochemistry technique.
Brains were fixed by cardiac perfusion with 4% Paraformaldehyde followed by immersion of the brain in the same fixative for at least 72 hours. Then brains were washed with PBS and transferred to 30% sucrose in PBS until they sank. After the brains sink in the sucrose, they were frozen using the cryostat special fast freezing (−60° C.). […] Quantitative analysis was performed by counting of immunoreactive (IR) cells at the widest dimension of the SNpc lateral to the roots of the third cranial nerve separating medial and lateral SN at the level of interpreduncular nucleus. The amount of the labeling at the striatum level was evaluated using computerized image analysis system.
All data are expressed as mean±SD. […]

SMILES | increase in pain threshold (Von Frey) versus vehicle (male Sprague-Dawley rats; 0.5 mg/kg i.p., 15 minutes) | increase in pain threshold (Von Frey) versus vehicle (male Sprague-Dawley rats; 1 mg/kg i.p., 15 minutes) | development of tolerance (ICR male mice; 20 administrations) | % of animals showing increased analgesia (ICR male mice; day 10) | latency time (ICR male mice; day 10) | % of animals showing increased analgesia (ICR male mice; day one) | latency time (ICR male mice; day one) | increase in pain threshold (Von Frey) versus vehicle (male Sprague-Dawley rats; 5 mg/kg, separate experiment) | SN dopaminergic (TH-IR) cells rescued from MPTP toxicity (C57/BL male mice)
CCCCCCC(C)(C)c1cc(O)c(C2CC(=O)C3CC2C3(C)C)c(O)c1 (single isomer, unassigned; (-)) [Compound A, (−)-4-[4-(1,1-Dimethyl-heptyl)2,6-dihydroxy-phenyl]-6,6-dimethyl-bicyclo[3.1.1)heptan-2-one] | 71% | 64% | did not cause the development of tolerance | 80% | 7 s | 88% | 8.1 s |  | 
CCCCCCC(C)(C)c1cc(OC)c(C2C=C(CO)C3CC2C3(C)C)c(OC)c1 (single isomer, unassigned; (+)) [HU-308, (+) {4-[4-(1,1-dimethylheptyl)-2,6-dimethoxy-phenyl]-6,6-dimethyl-bicyclo[3.1.1]hept-2-en-2-yl}-methanol, reference compound] |  |  |  |  |  |  |  | 117% | about 43%
